Data reported in patent US20230331737A1, “MTORC1 MODULATORS AND USES THEREOF” (Aeovian Pharmaceuticals, Inc., priority 2020, published 2023).

What was measured:
FKBP12 = FKBP12 (Homo sapiens, UniProt P62942); assay: SPR assay to determine binding affinity to FKBP12 (direct binding); details: immobilized biotinylated avi-FKBP12, single-cycle kinetics
Protocol: SPR Assay to Determine Binding Affinity to FKBP12.
Biotinylated avi-FKBP12 was immobilized on a streptavidin chip (Cytiva Series S SA) using a Biacore 8K or 8k+ (Cytiva). […] Test compounds described in Table 11 were diluted in DMSO to 100× working concentration. Each test compound was 100-fold diluted in 50 mM HEPES pH 7.5, 150 mM NaCl, 2 mM MgCl2, 1 mM DTT, 0.05% Tween-20 and a serial dilution prepared (9 concentrations, 3-fold dilutions, 0.08-500 nM). […] The compound dilutions were then injected at 100 uL/min for 120 seconds contact time in sequence with increasing concentrations. Dissociation was monitored for 3600 seconds. 50 mM HEPES pH 7.5, 150 mM NaCl, 2 mM MgCl2, 1 mM DTT, 0.05% Tween-20, 1% DMSO was used as running buffer. The single-cycle kinetics data were fit to a 1:1 binding model to measure the association rate ka (1/Ms), the dissociation rate kd (1/s) and the affinity Kd (M).

[1] = molecular target: FKBP12 ternary complex with FRB (Homo sapiens, UniProt P42345+P62942); assay: SPR assay to characterize ternary complex formation with FKBP12 (FRB injected over compound-saturated FKBP12); format: binding; details: FRB dilutions with 100 nM test compound over immobilized FKBP12
Protocol: Biotinylated avi-FKBP12 was immobilized on a streptavidin chip (Cytiva Series S SA) using a Biacore 8K or 8k+ (Cytiva). To achieve an immobilization level of 100 RU, 0.3 μg/ml biotinylated avi-FKBP12 were injected for 80 sec at a flow rate of 10 μl/min. Serial dilution of FRB was prepared (12 concentrations, 3-fold dilutions, 0.00011-20 μM) and supplemented with 100 nM of a test compound. A-B-A injection mode was used to ensure saturation immobilized FKBP12 with respective test compound. 100 nM solution of the respective test compound was injected before FRB injection for 120 sec and during dissociation for 420 sec. The FRB dilutions were then injected 120 seconds contact time with increasing concentrations. Rapamycin was used as reference sample. 50 mM HEPES pH 7.5, 150 mM NaCl, 2 mM MgCl2, 1 mM DTT, 0.05% Tween-20, 1% DMSO was used as running buffer at a flow rate of 30 μl/min. The multi-cycle kinetics data were fit to a 1:1 binding model to measure the association rate ka (1/Ms), the dissociation rate kd (1/s) and the affinity Kd (M). In case of fast association and dissociation, steady state affinity analysis following the law of mass action was used to determine the affinity Kd (M).

mTORC1 = molecular target: T1, mTORC1 (Homo sapiens, UniProt P42345+P62942); assay: mTORC1 inhibition in PC-3 cells, AlphaLISA of p70S6K pT389 levels; format: cell-based; details: mTORC1 as measured by inhibition of p70S6K pT389 levels, read-out: mTROC1 IC50
T1 construct: endogenous in cells; host or cells: PC-3 cells
Protocol: mTORC1 inhibition was determined via analysis of phosphorylation levels of Phospho-p70 S6 kinase (p70S6K pT389) and Phospho-S6 Ribosomal Protein (pRPS6 pS240/pS244) with the corresponding AlphaLISA kits (PerkinElmer Alpha SF Ultra™ Multiplex phospho (Thr389)/total p70 S6K Assay Kit (Eu/Tb) and AlphaLISA SF Ultra™ p-Ribosomal Protein S6 (Ser240/244) Assay Kit).
%−activity=100*((Sample−Low control)/(High control−Low control))

Sequence of FKBP12 (P62942 whole entry, species assumed): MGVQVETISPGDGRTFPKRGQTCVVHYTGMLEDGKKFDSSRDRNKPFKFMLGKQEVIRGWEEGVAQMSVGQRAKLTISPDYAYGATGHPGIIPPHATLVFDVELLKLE

Compound | Kd (FKBP12) | Kd [1] | IC50 (mTORC1)
COCCO[C@H]1C[C@@H]2CC[C@@H](C)[C@@](O)(O2)C(=O)C(=O)N2CCCC[C@H]2C(=O)O[C@H]([C@H](C)C[C@@H]2CC[C@@H](OCCCO)[C@H](OC)C2)CC(=O)[C@H](C)/C=C(\C)[C@@H](O)[C@@H](OC)C(=O)[C@H](C)C[C@H](C)/C=C/C=C/C=C/1C [Compound 427, (1R,9S,12S,15R,16E,18R,19R,21R,23S,24E,26E,28E,30S,32S,35R)-1,18-dihydroxy-12-[(1R)-2-[(1S,3R,4R)-4-(3-hydroxypropoxy)-3-methoxy-cyclohexyl]-1-methyl-ethyl]-19-methoxy-30-(2-methoxyethoxy)-15,17,21,23,29,35-hexamethyl-11,36-dioxa-4-azatricyclo[30.3.1.04,9]hexatriaconta-16,24,26,28-tetraene-2,3,10,14,20-pentone] | 0.3 to 1 nM | < 500 nM | < 0.8 nM
CO[C@@H]1C[C@H](C[C@@H](C)[C@@H]2CC(=O)[C@H](C)/C=C(\C)[C@@H](O)[C@@H](OC)C(=O)[C@H](C)C[C@H](C)/C=C/C=C/C=C(\C)[C@@H](OC3CC3)C[C@@H]3CC[C@@H](C)[C@@](O)(O3)C(=O)C(=O)N3CCCC[C@H]3C(=O)O2)CC[C@H]1OCCO [Compound 527, (1R,9S,12S,15R,16E,18R,19R,21R,23S,24E,26E,28E,30S,32S,35R)-30-(cyclopropoxy)-1,18-dihydroxy-12-[(1R)-2-[(1S,3R,4R)-4-(2-hydroxyethoxy)-3-methoxy-cyclohexyl]-1-methyl-ethyl]-19-methoxy-15,17,21,23,29,35-hexamethyl-11,36-dioxa-4-azatricyclo[30.3.1.04,9]hexatriaconta-16,24,26,28-tetraene-2,3,10,14,20-pentone] | 0.3 to 1 nM | < 500 nM | < 0.8 nM
CO[C@@H]1C[C@H](C[C@@H](C)[C@@H]2CC(=O)[C@H](C)/C=C(\C)[C@@H](O)[C@@H](OC)C(=O)[C@H](C)C[C@H](C)/C=C/C=C/C=C(\C)[C@H](OCCOCCO)C[C@@H]3CC[C@@H](C)[C@@](O)(O3)C(=O)C(=O)N3CCCC[C@H]3C(=O)O2)CC[C@H]1O [Compound 125, (1R,9S,12S,15R,16E,18R,19R,21R,23S,24E,26E,28E,30R,32S,35R)-1,18-dihydroxy-30-[2-(2-hydroxyethoxy)ethoxy]-12-[(1R)-2-[(1S,3R,4R)-4-hydroxy-3-methoxy-cyclohexyl]-1-methyl-ethyl]-19-methoxy-15,17,21,23,29,35-hexamethyl-11,36-dioxa-4-azatricyclo[30.3.1.04,9]hexatriaconta-16,24,26,28-tetraene-2,3,10,14,20-pentone] | < 0.3 nM | > 1100 nM | 0.8 to 1.5 nM
CO[C@@H]1C[C@H](C[C@@H](C)[C@@H]2CC(=O)[C@H](C)/C=C(\C)[C@@H](O)[C@@H](OC)C(=O)[C@H](C)C[C@H](C)/C=C/C=C/C=C(\C)[C@H](OCCc3ccccc3)C[C@@H]3CC[C@@H](C)[C@@](O)(O3)C(=O)C(=O)N3CCCCC3C(=O)O2)CC[C@H]1O (stereo partly drawn) [Compound 121, (1R,9S,12S,15R,16E,18R,19R,21R,23S,24E,26E,28E,30R,32S,35R)-1,18-dihydroxy-12-[(1R)-2-[(I S,3R,4R)-4-hydroxy-3-methoxy-cyclohexyl]-1-methyl-ethyl]-19-methoxy-15,17,21,23,29,35-hexamethyl-30-(2-phenylethoxy)-11,36-dioxa-4-azatricyclo[30.3.1.04,9]hexatriaconta-16,24,26,28-tetraene-2,3,10,14,20-pentone] | > 1 nM | < 500 nM | 0.8 to 1.5 nM
CO[C@@H]1C[C@H](C[C@@H](C)[C@@H]2CC(=O)[C@H](C)/C=C(\C)[C@@H](O)[C@@H](OC)C(=O)[C@H](C)C[C@H](C)/C=C/C=C/C=C(\C)[C@H](OCC3COC3)C[C@@H]3CC[C@@H](C)[C@@](O)(O3)C(=O)C(=O)N3CCCC[C@H]3C(=O)O2)CC[C@H]1O [Compound 122, (1R,9S,12S,15R,16E,18R,19R,21R,23S,24E,26E,28E,30R,32S,35R)-1,18-dihydroxy-12-[(2R)-1-[(1S,3R,4R)-4-hydroxy-3-methoxycyclohexyl]propan-2-yl]-19-methoxy-15,17,21,23,29,35-hexamethyl-30-[(oxetan-3-yl)methoxy]-11,36-dioxa-4-azatricyclo[30.3.1.04,9]hexatriaconta-16,24,26,28-tetraene-2,3,10,14,20-pentone] | 0.3 to 1 nM | > 1100 nM | 0.8 to 1.5 nM
CO[C@@H]1C[C@H](C[C@@H](C)[C@@H]2CC(=O)[C@H](C)/C=C(\C)[C@@H](O)[C@@H](OC)C(=O)[C@H](C)C[C@H](C)/C=C/C=C/C=C(\C)[C@@H](OCCCCO)C[C@@H]3CC[C@@H](C)[C@@](O)(O3)C(=O)C(=O)N3CCCC[C@H]3C(=O)O2)CC[C@H]1OCCCN1CCOCC1 [Compound 426, (1R,9S,12S,15R,16E,18R,19R,21R,23S,24E,26E,28E,30S,32S,35R)-1,18-dihydroxy-30-(4-hydroxybutoxy)-19-methoxy-12-[(1R)-2-[(1S,3R,4R)-3-methoxy-4-(3-morpholinopropoxy)cyclohexyl]-1-methyl-ethyl]-15,17,21,23,29,35-hexamethyl-11,36-dioxa-4-azatricyclo[30.3.1.0^4,9]hexatriaconta-16,24,26,28-tetraene-2,3,10,14,20-pentone] | < 0.3 nM | 500 to 1100 nM | 0.8 to 1.5 nM
CO[C@@H]1C[C@H](C[C@@H](C)[C@@H]2CC(=O)[C@H](C)/C=C(\C)[C@@H](O)[C@@H](OC)C(=O)[C@H](C)C[C@H](C)/C=C/C=C/C=C(\C)[C@@H](OCCOCCO)C[C@@H]3CC[C@@H](C)[C@@](O)(O3)C(=O)C(=O)N3CCCC[C@H]3C(=O)O2)CC[C@H]1O [Compound 524, (1R,9S,12S,15R,16E,18R,19R,21R,23S,24E,26E,28E,30S,32S,35R)-1,18-dihydroxy-30-[2-(2-hydroxyethoxy)ethoxy]-12-[(1R)-2-[(1S,3R,4R)-4-hydroxy-3-methoxy-cyclohexyl]-1-methyl-ethyl]-19-methoxy-15,17,21,23,29,35-hexamethyl-11,36-dioxa-4-azatricyclo[30.3.1.04,9]hexatriaconta-16,24,26,28-tetraene-2,3,10,14,20-pentone] | < 0.3 nM | 500 to 1100 nM | < 0.8 nM
COCCO[C@H]1C[C@@H]2CC[C@@H](C)[C@@](O)(O2)C(=O)C(=O)N2CCCC[C@H]2C(=O)O[C@H]([C@H](C)C[C@@H]2CC[C@@H](O)[C@H](OC)C2)CC(=O)[C@H](C)/C=C(\C)[C@@H](O)[C@@H](OC)C(=O)[C@H](C)C[C@H](C)/C=C/C=C/C=C/1C [Compound 529, (1R,9S,12S,15R,16E,18R,19R,21R,23S,24E,26E,28E,30S,32S,35R)-1,18-dihydroxy-12-[(1R)-2-[(1S,3R,4R)-4-hydroxy-3-methoxy-cyclohexyl]-1-methyl-ethyl]-19-methoxy-30-(2-methoxyethoxy)-15,17,21,23,29,35-hexamethyl-11,36-dioxa-4-azatricyclo[30.3.1.04,9]hexatriaconta-16,24,26,28-tetraene-2,3,10,14,20-pentone] | < 0.3 nM | < 500 nM | < 0.8 nM
